Results published in ChEMBL document CHEMBL1131172 (J Med Chem, 1998).
pIC50: −log10 of the molar value.

Key:
Dihydrofolate reductase [1] = target: T1, Dihydrofolate reductase (Rattus norvegicus, UniProt Q920D2)
T1 sequence (Q920D2 whole entry): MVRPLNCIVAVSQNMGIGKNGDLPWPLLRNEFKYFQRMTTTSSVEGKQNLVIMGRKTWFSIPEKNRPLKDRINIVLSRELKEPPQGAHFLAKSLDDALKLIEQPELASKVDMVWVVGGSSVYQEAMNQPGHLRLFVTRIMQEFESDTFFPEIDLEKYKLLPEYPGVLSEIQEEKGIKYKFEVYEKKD
Description: Inhibitory activity against dihydrofolate reductase (DHFR) from rat liver

[2] = target: T2, Bifunctional dihydrofolate reductase-thymidylate synthase (Toxoplasma gondii, UniProt Q07422)
T2 sequence (Q07422 whole entry): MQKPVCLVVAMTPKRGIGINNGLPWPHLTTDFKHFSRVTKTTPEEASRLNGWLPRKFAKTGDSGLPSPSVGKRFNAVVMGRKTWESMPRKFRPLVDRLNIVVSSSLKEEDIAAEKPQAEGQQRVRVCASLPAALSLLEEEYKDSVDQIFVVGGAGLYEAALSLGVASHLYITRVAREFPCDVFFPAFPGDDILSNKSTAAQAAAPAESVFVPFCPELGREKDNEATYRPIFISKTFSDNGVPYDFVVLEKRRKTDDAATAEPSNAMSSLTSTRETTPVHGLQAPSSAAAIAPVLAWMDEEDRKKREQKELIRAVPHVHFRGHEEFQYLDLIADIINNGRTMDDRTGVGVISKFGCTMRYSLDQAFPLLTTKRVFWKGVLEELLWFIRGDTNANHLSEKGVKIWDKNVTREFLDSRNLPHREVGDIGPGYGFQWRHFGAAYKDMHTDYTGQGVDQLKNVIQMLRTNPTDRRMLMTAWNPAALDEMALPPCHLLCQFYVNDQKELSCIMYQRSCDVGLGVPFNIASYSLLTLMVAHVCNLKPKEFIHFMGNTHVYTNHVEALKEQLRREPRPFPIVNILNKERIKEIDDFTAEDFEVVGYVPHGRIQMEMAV
Description: Inhibitory activity against dihydrofolate reductase (DHFR) from Toxoplasma gondii

Dihydrofolate reductase [3] = target: T3, Dihydrofolate reductase (Pneumocystis carinii, UniProt P16184)
T3 sequence (P16184 whole entry): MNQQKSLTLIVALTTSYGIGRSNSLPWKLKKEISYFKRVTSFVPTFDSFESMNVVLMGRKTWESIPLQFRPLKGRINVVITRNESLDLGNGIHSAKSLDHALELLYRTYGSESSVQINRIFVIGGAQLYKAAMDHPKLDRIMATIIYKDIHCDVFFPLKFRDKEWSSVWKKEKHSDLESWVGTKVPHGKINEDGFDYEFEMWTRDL
Description: Inhibitory activity against dihydrofolate reductase (DHFR) from Pneumocystis carinii

CAKI-1 = assay: inhibition of the growth of renal cancer(CAKI-1) cell line; format: functional; settings: Homo sapiens
A549 = assay: inhibition of the growth of non-small-cell lung cancer (A549/ATCC) cell line; format: functional; settings: Homo sapiens
786-0 = assay: inhibition of the growth of renal cancer(786-0) cell line; format: functional; settings: Homo sapiens
NCI-H322M = assay: inhibition of the growth of non-small-cell lung cancer (NCI-H322M) cell line; format: functional; settings: Homo sapiens
NCI-H23 = assay: inhibition of the growth of non-small-cell lung cancer (NCI-H23) cell line; format: functional; settings: Homo sapiens
HCT-15 = assay: inhibition of the growth of colon cancer(HCT-15) cell line; format: functional; settings: Homo sapiens
UO-31 [4] = assay: inhibition of the growth of renal cancer(UO-31) cell line; format: functional; settings: Homo sapiens
NCI-H460 = assay: inhibition of the growth of non-small-cell lung cancer (NCI-H460) cell line; format: functional; settings: Homo sapiens
MCF7 = assay: inhibition of the growth of breast cancer (MCF-7) cell line; format: functional; settings: Homo sapiens
SF-539 = assay: inhibition of the growth of CNS cancer(SF-539) cell line; format: functional; settings: Homo sapiens
SNB-19 = assay: inhibition of the growth of CNS cancer(SNB-19) cell line; format: functional; settings: Homo sapiens
MDA-N = assay: inhibition of the growth of breast cancer(MDA-N) cell line; format: functional; settings: Homo sapiens
M14 = assay: inhibition of the growth of melanoma cancer (M14) cell line; format: functional; settings: Homo sapiens
IGROV-1 = assay: inhibition of the growth of ovarian cancer(IGROVI) cell line; format: functional; settings: Homo sapiens
HCT-116 = assay: inhibition of the growth of colon cancer(HCT116) cell line; format: functional; settings: Homo sapiens
OVCAR-8 = assay: inhibition of the growth of ovarian cancer(OVCAR-8) cell line; format: functional; settings: Homo sapiens
KM12 = assay: inhibition of the growth of colon cancer(KM-12) cell line; format: functional; settings: Homo sapiens
NCI/ADR-RES = assay: inhibition of the growth of breast cancer (MCF7/ADR-RES) cell line; format: functional; settings: Homo sapiens
UO-31 [5] = assay: Inhibition of the growth of renal cancer(UO-31) cell line at 0.01 uM; format: functional; settings: Homo sapiens
MDA-MB-435 = assay: inhibition of the growth of breast cancer (MDA-MB-435) cell line; format: functional; settings: Homo sapiens
RPMI-8226 = assay: inhibition of the growth of leukemia (RPMI-8226) cell line; format: functional; settings: Homo sapiens
MOLT-4 = assay: inhibition of the growth of leukemia (MOLT-4) cell line; format: functional; settings: Homo sapiens
NCI-H522 = assay: inhibition of the growth of non-small-cell lung cancer (NCI-H522) cell line; format: functional; settings: Homo sapiens
SR = assay: inhibition of the growth of leukemia(SR) cell line; format: functional; settings: Homo sapiens
SF-295 = assay: inhibition of the growth of CNS cancer(SF-295) cell line; format: functional; settings: Homo sapiens
SF-268 = assay: inhibition of the growth of CNS cancer(SF-268) cell line; format: functional; settings: Homo sapiens
SK-MEL-5 = assay: inhibition of the growth of melanoma cancer (SK-MEL-5) cell line; format: functional; settings: Homo sapiens
DU-145 = assay: inhibition of the growth of prostate cancer(DU-145) cell line; format: functional; settings: Homo sapiens

With `COc1ccc(Sc2ccc3nc(N)nc(N)c3n2)cc1OC` the pIC50 (Dihydrofolate reductase [1]) was 7.74, the pIC50 [2] was 7.72 and the pIC50 (Dihydrofolate reductase [3]) was 7.07.
For `Nc1nc(N)c2nc(Nc3ccccc3)ccc2n1`, the GI50 (CAKI-1) was 3580 nM, the GI50 (A549) was 640 nM and the GI50 (786-0) was 890 nM. For the same compound, the GI50 (NCI-H322M) was 8020 nM, the GI50 (NCI-H23) was 3670 nM and the GI50 (HCT-15) was 850 nM. It also gave a pIC50 (Dihydrofolate reductase [1]) of 6.37, a GI50 (UO-31 [4]) of under 10 nM and a GI50 (NCI-H460) of 430 nM. For the same compound, the GI50 (MCF7) was 6450 nM, the GI50 (SF-539) was 2950 nM and the GI50 (SNB-19) was 1570 nM. The GI50 (MDA-N) was 680 nM, the GI50 (M14) was 1070 nM and the GI50 (IGROV-1) was 3270 nM. It also gave a pIC50 [2] of 6.52, a GI50 (HCT-116) of 510 nM and a GI50 (OVCAR-8) of 990 nM. It also gave a GI50 (KM12) of 5940 nM, a pIC50 (Dihydrofolate reductase [3]) of 5.08 and a GI50 (NCI/ADR-RES) of 2690 nM. It also gave an inhibition at 0.01 µM (UO-31 [5]) of 57%, a GI50 (MDA-MB-435) of 570 nM and a GI50 (RPMI-8226) of 670 nM. The GI50 (MOLT-4) was 2180 nM, the GI50 (NCI-H522) was 4260 nM and the GI50 (SR) was 2910 nM. It also gave a GI50 (SF-295) of 1430 nM, a GI50 (SF-268) of 6050 nM and a GI50 (SK-MEL-5) of 830 nM. It also gave a GI50 (DU-145) of 4990 nM.
`COc1cc(CNc2ccc3nc(N)nc(N)c3n2)cc(OC)c1OC` showed a pIC50 (Dihydrofolate reductase [1]) of 5.85 and a pIC50 [2] of 6.31.
Work on `COc1ccccc1Sc1ccc2nc(N)nc(N)c2n1` yielded a pIC50 (Dihydrofolate reductase [1]) of 6.64, a pIC50 [2] of 7.24 and a pIC50 (Dihydrofolate reductase [3]) of 5.66.
